Data as given in ChEMBL document CHEMBL1157995, “New acetylenic enol ethers of glycerol from the sponge Petrosia sp” (1999).
Values after ≈ are worked out from the molar mass of the structure shown.

Test system: K562
Assay: Cytotoxicity against human K-562 cells after 5 days by MTT assay
Format: functional
Conditions: K562, 120 h, read-out: LC50 (the source's name)

Compound	CC50 [µg/mL]
CCCCCC/C=C\C#C/C=C\OC[C@@H](O)CO [PETRORASPAILYNE A1]	9.2 (≈ 36.5 µM)
CC(C)CCCC/C=C\C#C/C=C\OC[C@@H](O)CO [PETRORASPAILYNE A2]	57 (≈ 214 µM)
CCC(C)CCCCC/C=C\C#C/C=C\OC[C@@H](O)CO (stereo partly specified) [PETRORASPAILYNE A3]	29 (≈ 98.5 µM)
CCCCCCCCC#C/C=C\OC[C@@H](O)CO [PETRORASPAILYNE B1]	> 100
CCC(C)CCCCCC#C/C=C\OC[C@@H](O)CO (stereo partly specified) [PETRORASPAILYNE B2]	> 100
CC(C)CCCCCCC#C/C=C\OC[C@@H](O)CO [PETRORASPAILYNE B3]	> 100
